Series [1] can be described thus: Half life in Sprague-Dawley rat at 5.0 mg/kg, ig measured for 15 min to 72 hrs by LC-MS/MS analysis. It counts as ADME, organism-based. To be noted: in vivo, po.
Series [2] can be described thus: AUC (0 to infinity) in Sprague-Dawley rat at 5.0 mg/kg, ig measured for 15 min to 72 hrs by LC-MS/MS analysis. It counts as ADME, organism-based. Further details: dose 5 mg/kg, time infinity, route intragastric. The note with it: in vivo, po.
In series [3] the target is Mitogen-activated protein kinase kinase kinase 20 (Homo sapiens) (UniProt Q9NYL2). The experiment in a line: Inhibition of recombinant full length human GST-tagged ZAK expressed in baculovirus expression system at 1 uM using biotin as substrate preincubated for 5 mins followed by substrate addition and measured after 30 to 60 mins in presence of ATP by HTRF assay relative to control. In general terms: In TR-FRET formats the signal depends on donor and acceptor labels being close together.

A further series deals with HT-29. In words: Antiproliferative activity against human HT-29 cells at 10 uM incubated for 72 hrs by MTT assay relative to control. The series is classed as functional. To be noted: HT-29, 72 h. A general note: Tetrazolium dyes change colour on reduction, which living cells bring about.
Series [4] deals with Inhibitor of nuclear factor kappa-B kinase subunit beta (Homo sapiens) (UniProt O14920). The experiment in a line: Inhibition of recombinant full length human GST-tagged IKBKB expressed in baculovirus expression system at 1 uM using biotin as substrate preincubated for 5 mins followed by substrate addition and measured after 30 to 60 mins in presence of ATP by HTRF assay relative to control.
Inhibitor of nuclear factor kappa-B kinase subunit beta (Homo sapiens), sequence (O14920 whole entry): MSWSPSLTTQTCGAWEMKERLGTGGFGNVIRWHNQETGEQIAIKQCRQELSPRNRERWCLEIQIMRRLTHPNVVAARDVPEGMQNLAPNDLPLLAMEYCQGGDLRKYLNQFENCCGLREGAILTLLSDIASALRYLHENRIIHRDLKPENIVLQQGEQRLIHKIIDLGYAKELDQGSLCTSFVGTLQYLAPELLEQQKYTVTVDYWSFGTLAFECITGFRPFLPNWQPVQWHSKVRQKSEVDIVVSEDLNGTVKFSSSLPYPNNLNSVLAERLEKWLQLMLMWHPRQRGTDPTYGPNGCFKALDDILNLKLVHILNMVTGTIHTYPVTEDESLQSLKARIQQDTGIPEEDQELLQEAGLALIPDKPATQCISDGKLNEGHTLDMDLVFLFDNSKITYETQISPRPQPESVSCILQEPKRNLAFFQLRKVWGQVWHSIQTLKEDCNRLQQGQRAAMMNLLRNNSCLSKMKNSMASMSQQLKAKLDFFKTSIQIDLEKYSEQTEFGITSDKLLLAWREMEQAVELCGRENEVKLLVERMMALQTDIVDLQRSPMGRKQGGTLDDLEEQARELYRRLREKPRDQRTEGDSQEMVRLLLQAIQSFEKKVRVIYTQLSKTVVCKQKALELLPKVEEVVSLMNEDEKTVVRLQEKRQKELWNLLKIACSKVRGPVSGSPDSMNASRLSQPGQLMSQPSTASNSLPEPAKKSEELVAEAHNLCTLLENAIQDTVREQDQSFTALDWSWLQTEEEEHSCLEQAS

The target in series [5] is Tyrosine-protein kinase Mer (Homo sapiens) (UniProt Q12866). The experiment in a line: Inhibition of recombinant human GST-tagged cMER (578 to 872 residues) expressed in baculovirus infected Sf21 insect cells at 1 uM using biotin as substrate preincubated for 5 mins followed by substrate addition and measured after 30 to 60 mins in presence of ATP by HTRF assay relative to control.

Series [6] concerns the target Serine/threonine-protein kinase PLK3 (Homo sapiens) (UniProt Q9H4B4). The experiment in a line: Inhibition of recombinant full length human GST-tagged PLK3 expressed in baculovirus expression system at 1 uM using biotin as substrate preincubated for 5 mins followed by substrate addition and measured after 30 to 60 mins in presence of ATP by HTRF assay relative to control.

Series [7] concerns the target Tyrosine-protein kinase CSK (Homo sapiens) (UniProt P41240). In words: Inhibition of recombinant full length human His-tagged CSK at 1 uM using biotin as substrate preincubated for 5 mins followed by substrate addition and measured after 30 to 60 mins in presence of ATP by HTRF assay relative to control.
Series [8] has as its target T1, BDNF/NT-3 growth factors receptor (Homo sapiens, UniProt Q16620). In words: Inhibition of recombinant human His-tagged TRKB catalytic domain (526 to 838 residues) expressed in baculovirus expression system using biotin as substrate preincubated for 5 mins followed by substrate addition and measured after 30 to 60 mins in presence of ATP by HTRF assay.
The target in series [9] is Aurora kinase A (Homo sapiens) (UniProt O14965). In words: Inhibition of recombinant full length human His-tagged Aurora A expressed in baculovirus expression system at 1 uM using biotin as substrate preincubated for 5 mins followed by substrate addition and measured after 30 to 60 mins in presence of ATP by HTRF assay relative to control.
Aurora kinase A (Homo sapiens), sequence (O14965 whole entry): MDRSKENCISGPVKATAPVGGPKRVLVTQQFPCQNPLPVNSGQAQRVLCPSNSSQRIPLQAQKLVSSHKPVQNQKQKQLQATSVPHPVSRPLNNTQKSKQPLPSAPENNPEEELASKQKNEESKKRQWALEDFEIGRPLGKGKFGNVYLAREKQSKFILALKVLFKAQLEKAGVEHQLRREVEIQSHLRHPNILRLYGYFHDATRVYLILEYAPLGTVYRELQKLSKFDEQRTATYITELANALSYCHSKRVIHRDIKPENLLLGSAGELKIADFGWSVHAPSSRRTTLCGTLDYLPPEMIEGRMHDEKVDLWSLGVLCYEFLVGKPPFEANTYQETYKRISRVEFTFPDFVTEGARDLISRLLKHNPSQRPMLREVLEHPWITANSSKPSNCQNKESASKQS
Series [10] is described as follows: Cmax in Sprague-Dawley rat at 1.0 mg/kg, iv measured for 5 min to 72 hrs by LC-MS/MS analysis. The note with it: in vivo. The series is classed as ADME, organism-based. Further details: dose 1 mg/kg, route intravenous.
Series [11] can be described thus: Volume of distribution in Sprague-Dawley rat at 5.0 mg/kg, ig measured for 15 min to 72 hrs by LC-MS/MS analysis. The series is classed as ADME, organism-based. To be noted: in vivo, po.
Series [12] addresses Tyrosine-protein kinase ABL1 (Homo sapiens) (UniProt P00519). The experiment in a line: Inhibition of recombinant full length human His-tagged ABL1 expressed in baculovirus expression system at 1 uM using biotin as substrate preincubated for 5 mins followed by substrate addition and measured after 30 to 60 mins in presence of ATP by HTRF assay relative to control.
Series [13] concerns the target Serine/threonine-protein kinase PLK1 (Homo sapiens) (UniProt P53350). The experiment in a line: Inhibition of recombinant full length human His-tagged PLK1 expressed in baculovirus expression system at 1 uM using biotin as substrate preincubated for 5 mins followed by substrate addition and measured after 30 to 60 mins in presence of ATP by HTRF assay relative to control.

Series [14] has as its target CDK2/Cyclin A2 (Homo sapiens) (UniProt P24941+P20248). The experiment in a line: Inhibition of recombinant full length human His-tagged CDK2/Cyclin A expressed in baculovirus expression system at 1 uM using biotin as substrate preincubated for 5 mins followed by substrate addition and measured after 30 to 60 mins in presence of ATP by HTRF assay relative to control.

Series [15] has as its target Macrophage-stimulating protein receptor (Homo sapiens, UniProt Q04912). In words: Inhibition of recombinant human GST-tagged RON expressed in baculovirus system using biotin as substrate preincubated for 5 mins followed by substrate addition and measured after 30 to 60 mins in presence of ATP by HTRF assay.
The target in series [16] is Insulin-like growth factor 1 receptor (Homo sapiens) (UniProt P08069). The experiment in a line: Inhibition of recombinant full length human His-tagged IGF1R expressed in baculovirus expression system at 1 uM using biotin as substrate preincubated for 5 mins followed by substrate addition and measured after 30 to 60 mins in presence of ATP by HTRF assay relative to control.

Series [17] deals with Aurora kinase B (Homo sapiens) (UniProt Q96GD4). In words: Inhibition of recombinant full length human His-tagged Aurora B expressed in baculovirus expression system at 1 uM using biotin as substrate preincubated for 5 mins followed by substrate addition and measured after 30 to 60 mins in presence of ATP by HTRF assay relative to control.
Aurora kinase B (Homo sapiens), sequence (Q96GD4 whole entry): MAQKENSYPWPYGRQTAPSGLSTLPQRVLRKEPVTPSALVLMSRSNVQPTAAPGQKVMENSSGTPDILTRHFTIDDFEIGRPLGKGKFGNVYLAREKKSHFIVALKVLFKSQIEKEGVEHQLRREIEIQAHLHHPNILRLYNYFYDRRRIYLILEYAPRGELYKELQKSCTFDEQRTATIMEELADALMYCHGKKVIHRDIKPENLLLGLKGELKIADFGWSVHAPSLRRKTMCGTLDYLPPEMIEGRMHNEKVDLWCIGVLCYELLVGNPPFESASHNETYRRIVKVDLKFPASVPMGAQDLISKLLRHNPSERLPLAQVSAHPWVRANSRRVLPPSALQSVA
Series [18] can be described thus: AUC (0 to infinity) in Sprague-Dawley rat at 1.0 mg/kg, iv measured for 5 min to 72 hrs by LC-MS/MS analysis. The note with it: in vivo. It counts as ADME, organism-based. Also on record: dose 1 mg/kg, time infinity, route intravenous.
In series [19] the target is Tyrosine-protein kinase Fes/Fps (Homo sapiens) (UniProt P07332). In words: Inhibition of recombinant human His-tagged FES expressed in baculovirus system at 1 uM using biotin as substrate preincubated for 5 mins followed by substrate addition and measured after 30 to 60 mins in presence of ATP by HTRF assay relative to control.
Tyrosine-protein kinase Fes/Fps (Homo sapiens), sequence (P07332 whole entry): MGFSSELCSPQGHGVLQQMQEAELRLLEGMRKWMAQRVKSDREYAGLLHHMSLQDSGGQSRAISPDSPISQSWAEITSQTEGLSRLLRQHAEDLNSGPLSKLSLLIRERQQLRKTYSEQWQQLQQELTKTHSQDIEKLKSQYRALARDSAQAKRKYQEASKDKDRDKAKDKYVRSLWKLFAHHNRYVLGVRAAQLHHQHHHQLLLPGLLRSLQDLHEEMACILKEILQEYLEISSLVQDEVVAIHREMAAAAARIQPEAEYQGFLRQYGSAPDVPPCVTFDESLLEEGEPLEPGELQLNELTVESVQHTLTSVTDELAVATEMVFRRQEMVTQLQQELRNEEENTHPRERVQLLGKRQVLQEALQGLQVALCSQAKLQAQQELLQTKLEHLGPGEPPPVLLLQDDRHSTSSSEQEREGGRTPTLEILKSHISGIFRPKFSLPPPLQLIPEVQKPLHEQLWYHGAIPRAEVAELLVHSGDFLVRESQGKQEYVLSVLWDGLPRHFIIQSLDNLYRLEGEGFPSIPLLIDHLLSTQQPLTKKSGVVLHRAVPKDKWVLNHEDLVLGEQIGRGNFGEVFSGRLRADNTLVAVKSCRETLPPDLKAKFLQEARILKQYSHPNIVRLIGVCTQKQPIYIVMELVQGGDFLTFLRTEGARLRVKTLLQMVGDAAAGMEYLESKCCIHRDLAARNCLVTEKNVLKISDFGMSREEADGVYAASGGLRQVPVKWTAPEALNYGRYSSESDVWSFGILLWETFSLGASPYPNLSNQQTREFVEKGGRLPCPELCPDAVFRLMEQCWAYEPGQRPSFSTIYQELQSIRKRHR
Series [20] addresses Ribosomal protein S6 kinase alpha-5 (Homo sapiens) (UniProt O75582). The experiment in a line: Inhibition of recombinant full length human GST-tagged RPS6KA5 expressed in baculovirus expression system at 1 uM using biotin as substrate preincubated for 5 mins followed by substrate addition and measured after 30 to 60 mins in presence of ATP by HTRF assay relative to control.

The target in series [21] is Tyrosine-protein kinase Lyn (Homo sapiens) (UniProt P07948). The experiment in a line: Inhibition of recombinant full length human GST-tagged LYN B expressed in baculovirus expression system at 1 uM using biotin as substrate preincubated for 5 mins followed by substrate addition and measured after 30 to 60 mins in presence of ATP by HTRF assay relative to control.
Series [22] has as its target T1, BDNF/NT-3 growth factors receptor. In words: Inhibition of recombinant human His-tagged TRKB catalytic domain (526 to 838 residues) expressed in baculovirus expression system at 1 uM using biotin as substrate preincubated for 5 mins followed by substrate addition and measured after 30 to 60 mins in presence of ATP by HTRF assay relative to control.
Target sequence in this assay (Q16620 32-822 limits assumed): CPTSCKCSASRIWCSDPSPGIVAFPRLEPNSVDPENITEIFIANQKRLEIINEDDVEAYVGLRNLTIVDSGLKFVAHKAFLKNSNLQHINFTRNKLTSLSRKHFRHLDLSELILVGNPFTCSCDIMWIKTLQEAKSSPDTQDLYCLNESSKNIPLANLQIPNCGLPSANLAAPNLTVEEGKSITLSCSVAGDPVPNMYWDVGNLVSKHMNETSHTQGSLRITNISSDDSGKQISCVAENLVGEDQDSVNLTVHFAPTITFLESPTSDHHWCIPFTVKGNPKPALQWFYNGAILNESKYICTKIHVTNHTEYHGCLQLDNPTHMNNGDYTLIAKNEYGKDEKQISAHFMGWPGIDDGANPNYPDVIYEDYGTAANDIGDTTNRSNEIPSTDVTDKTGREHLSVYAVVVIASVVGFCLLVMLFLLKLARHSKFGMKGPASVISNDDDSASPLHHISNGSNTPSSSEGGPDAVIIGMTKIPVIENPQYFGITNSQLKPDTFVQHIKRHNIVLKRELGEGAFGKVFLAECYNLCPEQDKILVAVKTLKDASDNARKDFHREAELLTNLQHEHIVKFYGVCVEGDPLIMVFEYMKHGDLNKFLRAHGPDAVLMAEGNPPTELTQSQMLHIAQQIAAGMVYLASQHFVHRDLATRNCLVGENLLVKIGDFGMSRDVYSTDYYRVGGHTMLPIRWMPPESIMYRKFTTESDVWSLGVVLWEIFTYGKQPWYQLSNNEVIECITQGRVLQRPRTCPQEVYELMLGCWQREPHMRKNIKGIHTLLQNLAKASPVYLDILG

Data on one molecule can be found in ChEMBL document CHEMBL4373740, “Synthesis and biological evaluation of new MET inhibitors with 1,6-naphthyridinone scaffold” (Eur J Med Chem, 2020).

pIC50: −log10 of the molar value.

Ribosomal protein S6 kinase alpha-5 (Homo sapiens), sequence (O75582 whole entry, looked up): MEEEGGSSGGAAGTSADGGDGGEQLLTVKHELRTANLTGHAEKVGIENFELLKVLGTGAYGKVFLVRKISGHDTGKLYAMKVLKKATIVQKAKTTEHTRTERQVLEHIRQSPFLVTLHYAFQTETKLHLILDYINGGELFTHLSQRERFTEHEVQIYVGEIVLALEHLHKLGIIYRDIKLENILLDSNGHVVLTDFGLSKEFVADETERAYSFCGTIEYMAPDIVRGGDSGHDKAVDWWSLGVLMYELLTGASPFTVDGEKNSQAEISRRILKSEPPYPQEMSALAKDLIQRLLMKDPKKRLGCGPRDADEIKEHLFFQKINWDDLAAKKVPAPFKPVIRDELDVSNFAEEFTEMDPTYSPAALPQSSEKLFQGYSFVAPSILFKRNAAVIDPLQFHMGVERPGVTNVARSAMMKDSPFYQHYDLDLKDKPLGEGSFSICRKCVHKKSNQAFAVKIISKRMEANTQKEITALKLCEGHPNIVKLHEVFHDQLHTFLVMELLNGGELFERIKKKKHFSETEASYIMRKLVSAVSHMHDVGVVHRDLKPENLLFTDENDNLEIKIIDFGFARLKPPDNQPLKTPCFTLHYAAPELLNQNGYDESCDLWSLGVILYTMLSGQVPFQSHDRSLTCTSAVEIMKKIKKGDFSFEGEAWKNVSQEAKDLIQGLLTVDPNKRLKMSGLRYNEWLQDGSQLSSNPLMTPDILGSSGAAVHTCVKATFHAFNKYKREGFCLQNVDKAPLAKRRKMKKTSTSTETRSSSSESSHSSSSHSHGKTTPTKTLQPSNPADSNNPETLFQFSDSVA
Serine/threonine-protein kinase PLK1 (Homo sapiens), sequence (P53350 whole entry): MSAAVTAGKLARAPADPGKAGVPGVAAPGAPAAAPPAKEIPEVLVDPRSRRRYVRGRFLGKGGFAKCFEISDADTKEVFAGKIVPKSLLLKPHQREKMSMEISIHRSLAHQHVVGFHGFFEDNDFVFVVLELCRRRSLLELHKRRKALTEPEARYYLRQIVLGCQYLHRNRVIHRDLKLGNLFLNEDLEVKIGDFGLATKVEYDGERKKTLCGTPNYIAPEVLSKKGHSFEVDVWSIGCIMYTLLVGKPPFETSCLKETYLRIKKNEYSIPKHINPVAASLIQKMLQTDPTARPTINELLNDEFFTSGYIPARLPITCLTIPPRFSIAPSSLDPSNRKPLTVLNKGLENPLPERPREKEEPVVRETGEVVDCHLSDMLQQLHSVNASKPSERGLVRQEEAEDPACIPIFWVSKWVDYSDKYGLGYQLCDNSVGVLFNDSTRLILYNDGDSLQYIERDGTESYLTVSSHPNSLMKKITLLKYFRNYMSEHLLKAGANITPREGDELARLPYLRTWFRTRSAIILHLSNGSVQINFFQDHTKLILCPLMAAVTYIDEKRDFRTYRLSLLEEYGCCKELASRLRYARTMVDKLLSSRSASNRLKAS
Tyrosine-protein kinase CSK (Homo sapiens), sequence (P41240 2-450 limits assumed): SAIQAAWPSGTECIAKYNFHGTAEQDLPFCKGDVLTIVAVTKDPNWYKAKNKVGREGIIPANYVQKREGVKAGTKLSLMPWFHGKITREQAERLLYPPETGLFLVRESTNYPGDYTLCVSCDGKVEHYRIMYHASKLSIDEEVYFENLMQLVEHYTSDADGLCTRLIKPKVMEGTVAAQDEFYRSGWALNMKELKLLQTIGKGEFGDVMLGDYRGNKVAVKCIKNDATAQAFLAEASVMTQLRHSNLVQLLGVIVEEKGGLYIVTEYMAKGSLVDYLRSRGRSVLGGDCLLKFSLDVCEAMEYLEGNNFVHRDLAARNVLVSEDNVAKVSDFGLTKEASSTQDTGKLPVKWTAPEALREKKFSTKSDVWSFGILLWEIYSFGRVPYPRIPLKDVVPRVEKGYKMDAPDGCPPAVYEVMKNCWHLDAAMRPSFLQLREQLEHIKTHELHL

Molecule `Cn1cc(-c2ccc(F)cc2)c(=O)c2c(Nc3ccc(Oc4ccnc(NC(=O)C5CC5)c4)c(F)c3)nccc21` had a half-life in series [1] of 20.6 h. Also, the AUC(0-inf) stood at 233 µg·h/mL in [2] and 80.6 µg·h/mL in series [18]. Also, the inhibition is less than 50% in [3]; less than 50% in [4]; more than 80% in series [5]; less than 50% in [6]; less than 50% in series [7]; less than 50% in [9]. In addition, the inhibition in series [12], in series [13], in [14], in [16], in series [17] and in [19] was less than 50% in each case. In addition, the inhibition was less than 50% in [20], less than 50% in series [21] and more than 80% in [22]. In the series on HT-29, this molecule yielded an inhibition at 10 µM of 24.8%. For the same molecule, the pIC50 in series [8] was 7.23; in series [15] it was 6.46. The molecule also displayed a Cmax in series [10] of 6500 ng/mL. Besides, the Vd in series [11] was 0.6 L/kg.

For orientation: half-life means the time needed for the level to fall by half in the phase considered. Broadly, the AUC(0-inf) is total exposure, with the tail of the curve extrapolated. In general, inhibition refers to the drop in the measured response relative to a control, in per cent. The term pIC50 denotes −log10 of the IC50, conventionally taken in molar units. A word on the Cmax: it is the maximum level reached in the sampled fluid or tissue.
